Measured values: patent US20080269293A1, “PYRAZOLE DERIVATIVES AS ANTI-PLATELET AND ANTI-THROMBOTIC AGENTS” (Pfizer Inc., priority 2006, published 2008)

The compounds below were run against T1, platelet P2Y1 receptor (Homo sapiens, UniProt P47900) (assay: P2Y1 receptor binding assay ([β-33P]-2-thiomethyl ADP)). Conditions: binding of 0.3 nM [β-33P]-2-thiomethyl ADP, hP2Y1 expressing 132N1 cell membrane, 25° C., 60 minutes.
T1 construct: expressed in transfected cells
Description: Conducting P2Y, Receptor Binding Assay
[β−^33P]-2-thiomethyl ADP (2100 Ci/mmol) was purchased from PerkinElmer, Protease Inhibitors Complete, EDTA-free, was purchased from Roche, and ADP (Adenosine diphosphate), MRS2179, and 2-thiomethy ADP (2-Me-S-ADP) were purchased from Sigma Chemical Co.
Binding of 0.3 nM [β-^33P]-2-thiomethyl ADP to platelet P2Y1 receptor in 132N1 cell membrane was carried out in triplicate at 25° C. with 96 well plate (Corning, 3365). Nonspecific binding was defined as binding in the presence of 1 μM of 2-Me-S-ADP. One […] of dimethyl sulfoxide (DMSO) or 1 μL of DMSO (Sigma-Aldrich, 472301) containing a test compound diluted to final assay concentrations of 0.1 nM to 1 mM were placed into each well of a Corning 96-well plate. A volume of 60 μL of buffer: 50 mM Tris pH 7.5 (Sigma, T-2194), 1 mM EDTA (Gibco, 15575-038) and 100 mM NaCl (Gibco, 200740-011) containing 0.3 nM [β-^33P]-2-thiomethyl ADP 40 μL of hP2Y1 expressing 132N1 cell membrane prep was added to each well. After incubation on shaker for 60 minutes, The contents of the wells are filtered and washed 8 times with Tomtec Cell Harvester through UniFilter 96, GF/B plates (PerkinElmer, 6005177) Forty five microliters […] Scintillation cocktail (Ultima-Flo-M) was added into each well and plates counted on a Trilux Microbeta Counter.
• 1. Add 1 μL DMSO or compounds into the wells according to the protocol. • 2. Add 60 μL incubation buffer with [β-^33P]-2-thiomethyl ADP into each well. • 3. Add 40 μL hP2Y1 expressing 132N1 cell membrance prep. Incubate 60 minutes on top of the shaker (IKA Shutter MTS4). • 4. Filter and wash 8× with Tomtec Cell Harvester through UniFilter GF/B plates (PerkinElmer, 6005177). • 5. Add 45 μL scintillation cocktail into each well and plates counted on a Trilux Microbeta Counter.

T1 sequence (P47900 whole entry): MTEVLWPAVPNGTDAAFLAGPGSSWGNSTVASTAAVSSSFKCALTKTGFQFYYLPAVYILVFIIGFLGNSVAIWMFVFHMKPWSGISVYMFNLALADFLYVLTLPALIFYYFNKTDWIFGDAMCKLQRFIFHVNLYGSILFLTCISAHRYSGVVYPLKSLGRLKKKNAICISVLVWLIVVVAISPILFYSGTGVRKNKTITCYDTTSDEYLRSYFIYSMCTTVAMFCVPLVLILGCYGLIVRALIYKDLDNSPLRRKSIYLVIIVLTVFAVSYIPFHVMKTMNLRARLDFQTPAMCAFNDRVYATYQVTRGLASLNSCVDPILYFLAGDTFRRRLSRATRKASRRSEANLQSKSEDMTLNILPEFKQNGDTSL

For `Cc1cc(Oc2ccccc2NC(=O)Nc2ccc(OC(F)(F)F)cc2)n(-c2ccc(F)cc2Cl)n1` [Example 114, 1-(2-(1-(2-chloro-4-fluorophenyl)-3-methyl-1H-pyrazol-5-yloxy)phenyl)-3-(4-(trifluoromethoxy)phenyl)urea], which IC50 is on record?
Its IC50 is 12 nM.

`Cc1cc(Oc2ccccc2NC(=O)Nc2ccc(C3CCCCC3)cc2)n(-c2ccc(F)cc2Cl)n1` [Example 115, 1-(2-(1-(2-chloro-4-fluorophenyl)-3-methyl-1H-pyrazol-5-yloxy)phenyl)-3-(4-cyclohexylphenyl)urea] was tested. Which IC50 did it give?
The IC50 was 18 nM.

For `COC(C)c1ccc(NC(=O)Nc2ccccc2Oc2cc(C)nn2-c2ccccc2Cl)cc1` (stereo not shown) [Example 116, 1-(2-(1-(2-chlorophenyl)-3-methyl-1H-pyrazol-5-yloxy)phenyl)-3-(4-(1-methoxyethyl)phenyl)urea], which IC50 is on record?
The IC50 was 1120 nM.

For `Cc1cc(Oc2ccccc2NC(=O)Nc2ccc(C(C)N(C)C)cc2)n(-c2ccccc2Cl)n1` (stereo not shown) [Example 117, 1-(2-(1-(2-chlorophenyl)-3-methyl-1H-pyrazol-5-yloxy)phenyl)-3-(4-(1-(dimethylamino)ethyl)phenyl)urea], which IC50 is on record?
Its IC50 is over 10000 nM.

For `CC(=O)c1ccc(NC(=O)Nc2ccccc2Oc2cc(C)nn2-c2ccccc2Cl)cc1` [Example 118, 1-(4-acetylphenyl)-3-(2-(1-(2-chlorophenyl)-3-methyl-1H-pyrazol-5-yloxy)phenyl)urea], which IC50 is on record?
Its IC50 is over 3330 nM.

With `CCCc1ccccc1-n1nc(C)cc1Oc1ccccc1NC(=O)Nc1ccc(OC(F)(F)F)cc1` [Example 119, 1-(2-(1-(2-propylphenyl)-3-methyl-1H-pyrazol-5-yloxy)phenyl)-3-(4-(trifluoromethoxy)phenyl)urea] as the compound, how does the IC50 read?
Its IC50 is 88 nM.

`Cc1cc(Oc2ccccc2NC(=O)Nc2ccc(C3CCNCC3)cc2)n(-c2ccccc2Cl)n1` [Example 120, 1-(2-(1-(2-chlorophenyl)-3-methyl-1H-pyrazol-5-yloxy)phenyl)-3-(4-(piperidin-4-yl)phenyl)urea] was tested. Which IC50 did it give?
Its IC50 is over 10000 nM.

`CC(=O)N1CCC(c2ccc(NC(=O)Nc3ccccc3Oc3cc(C)nn3-c3ccccc3Cl)cc2)CC1` [Example 121, 1-(4-(1-acetylpiperidin-4-yl)phenyl)-3-(2-(1-(2-chlorophenyl)-3-methyl-1H-pyrazol-5-yloxy)phenyl)urea] was tested. Which IC50 did it give?
The IC50 was over 10000 nM.

How did the IC50 turn out when `Cc1cc(Oc2ccccc2NC(=O)Nc2ccc(C3CCN(C)CC3)cc2)n(-c2ccccc2Cl)n1` [Example 122, 1-(2-(1-(2-chlorophenyl)-3-methyl-1H-pyrazol-5-yloxy)phenyl)-3-(4-(1-methylpiperidin-4-yl)phenyl)urea] was run?
Its IC50 is over 10000 nM.

How did the IC50 turn out when `Cc1cc(Oc2ccccc2NC(=O)Nc2ccc(C3CC3)cc2)n(-c2ccccc2Cl)n1` [Example 123, 1-(2-(1-(2-chlorophenyl)-3-methyl-1H-pyrazol-5-yloxy)phenyl)-3-(4-cyclopropylphenyl)urea] was run?
The IC50 was 121 nM.

With `Cc1cc(Oc2ccccc2NC(=O)Nc2ccc(C3CCCC3)cc2)n(-c2ccccc2Cl)n1` [Example 124, 1-(2-(1-(2-chlorophenyl)-3-methyl-1H-pyrazol-5-yloxy)phenyl)-3-(4-cyclopentylphenyl)urea] as the compound, how does the IC50 read?
Its IC50 is 32 nM.

For `Cc1cc(Oc2ccccc2NC(=O)Nc2ccc(OC(F)(F)F)cc2)n(-c2ccccc2Br)n1` [Example 125, 1-(2-(1-(2-bromophenyl)-3-methyl-1H-pyrazol-5-yloxy)phenyl)-3-(4-(trifluoromethoxy)phenyl)urea], which IC50 is on record?
The IC50 was 182 nM.

`Cc1cc(Oc2ccccc2NC(=O)Nc2ccc(Br)cc2)n(-c2ccccc2Cl)n1` [Example 126, 1-(4-bromophenyl)-3-(2-(1-(2-chlorophenyl)-3-methyl-1H-pyrazol-5-yloxy)phenyl)urea] was tested. Which IC50 did it give?
The IC50 was 170 nM.

For `Cc1cc(Oc2ccccc2NC(=O)Nc2ccc(C3CCSCC3)cc2)n(-c2ccccc2Cl)n1` [Example 127, 1-(2-(1-(2-chlorophenyl)-3-methyl-1H-pyrazol-5-yloxy)phenyl)-3-(4-(tetrahydro-2H-thiopyran-4-yl)phenyl)urea], which IC50 is on record?
The IC50 was 158 nM.

With `Cc1cc(Oc2ccccc2NC(=O)Nc2ccc(C3CCOCC3)cc2)n(-c2ccccc2Cl)n1` [Example 128, 1-(2-(1-(2-chlorophenyl)-3-methyl-1H-pyrazol-5-yloxy)phenyl)-3-(4-(tetrahydro-2H-pyran-4-yl)phenyl)urea] as the compound, how does the IC50 read?
The IC50 was 763 nM.

With `Cc1cc(Oc2ccccc2NC(=O)Nc2ccc(C3CCS(=O)(=O)CC3)cc2)n(-c2ccccc2Cl)n1` [Example 129] as the compound, how does the IC50 read?
The IC50 was over 10000 nM.
